From patent US8247211B2, “Glycopeptide antibiotics” (American Cyanamid Company, priority 2001, dated 2012)
Values after ≈ are worked out from the molar mass of the structure shown.

Columns and labels:
Experiment in all cases: In vitro antibacterial evaluation: minimum inhibitory concentration (MIC), broth dilution method
Assay type in all cases: cell-based
[1] = tested on: Enterococcus sp.; details: broth dilution, 18 hours at 35° C.
Summary of the method: (§1)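 Test strains, among them recent clinical isolates carrying methicillin, penicillin and/or vancomycin resistance, were inoculated at 5×10^5 CFU/mL. A broth dilution series spanning 64-0.06 μg/mL in Muller-Hinton II […] (NCCLS M7-A2) defined the MIC as the lowest growth-inhibiting concentration.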

[2] = tested on: Staphylococcus sp.; details: broth dilution, 18 hours at 35° C.; for MIC Staphylococcus aureus-SMITH (GC 4543): strain SMITH GC 4543
Summary of the method: as §1

[3] = tested on: Streptococcus sp.; details: broth dilution, 18 hours at 35° C.
Summary of the method: as §1

[4] = tested on: Escherichia coli; details: broth dilution, 18 hours at 35° C.
[5] = Enterococcus faecalis (ATCC 29212)
[6] = Enterococcus faecalis (GC 2242)
[7] = Enterococcus faecalis (GC 2691)
[8] = Enterococcus faecalis (GC 3059)
[9] = Enterococcus faecalis (GC 4552)
[10] = Enterococcus faecalis (GC 4553)
[11] = Enterococcus faecalis (GC 4554)
[12] = Enterococcus faecalis (GC 6189)
[13] = Streptococcus agalactiae (GC 4564)
[14] = Streptococcus pneumoniae (ATCC 6301)
[15] = Streptococcus pneumoniae (GC 1894)
[16] = Streptococcus pneumoniae (GC 4565)
[17] = Streptococcus pyogenes (GC 4563)

## COc1cc(-c2nc3cc(CC4NC(=O)C(C(C)c5ccccc5)NC(=O)CNC(=O)C(CO)NC(=O)C(C(O)C5CNC(=N)N5C5OC(CO)C(O)C(O)C5O)NC(=O)C(C(O)C5CNC(=N)N5)NC4=O)ccc3o2)cc(OC)c1OC (stereo not drawn) [Example 34, Cyclo[3-[2-(3,4,5-trimethoxyphenyl)-1,3-benzoxazol-5-yl]alanyl-3-(2-iminoimidazolidin-4-yl)seryl-3-(3-hexopyranosyl-2-iminoimidazolidin-4-yl)serylserylglycyl-β-methylphenyl-alanyl]]
[1]; Enterococcus avium (GC 4558)
  MIC Enterococcus avium (GC 4558): 16 µg/mL (≈ 13.8 µM)
[1]; [5]
  MIC Enterococcus faecalis (ATCC 29212): 64 µg/mL (≈ 55.1 µM)
[1]; [6]
  MIC Enterococcus faecalis (GC 2242): 32 µg/mL (≈ 27.5 µM)
[1]; [7]
  MIC Enterococcus faecalis (GC 2691): 32 µg/mL (≈ 27.5 µM)
[1]; [8]
  MIC Enterococcus faecalis (GC 3059): 32 µg/mL (≈ 27.5 µM)
[1]; [9]
  MIC Enterococcus faecalis (GC 4552): 32 µg/mL (≈ 27.5 µM)
[1]; [10]
  MIC Enterococcus faecalis (GC 4553): 32 µg/mL (≈ 27.5 µM)
[1]; [11]
  MIC Enterococcus faecalis (GC 4554): 32 µg/mL (≈ 27.5 µM)
[1]; [12]
  MIC Enterococcus faecalis (GC 6189): 64 µg/mL (≈ 55.1 µM)
[1]; Enterococcus faecium (GC 2243)
  MIC Enterococcus faecium (GC 2243): 32 µg/mL (≈ 27.5 µM)
[1]; Enterococcus faecium (GC 4556)
  MIC Enterococcus faecium (GC 4556): 64 µg/mL (≈ 55.1 µM)
[1]; Enterococcus faecium (GC 4557)
  MIC Enterococcus faecium (GC 4557): 8 µg/mL (≈ 6.88 µM)
[1]
  MIC Enterococcus avium (GC 4558): 16 µg/mL (≈ 13.8 µM)
  MIC Enterococcus faecalis (ATCC 29212): 64 µg/mL (≈ 55.1 µM)
  MIC Enterococcus faecalis (GC 2242): 32 µg/mL (≈ 27.5 µM)
  MIC Enterococcus faecalis (GC 2691): 32 µg/mL (≈ 27.5 µM)
  MIC Enterococcus faecalis (GC 3059): 32 µg/mL (≈ 27.5 µM)
  MIC Enterococcus faecalis (GC 4552): 32 µg/mL (≈ 27.5 µM)
  MIC Enterococcus faecalis (GC 4553): 32 µg/mL (≈ 27.5 µM)
  MIC Enterococcus faecalis (GC 4554): 32 µg/mL (≈ 27.5 µM)
  MIC Enterococcus faecalis (GC 6189): 64 µg/mL (≈ 55.1 µM)
  MIC Enterococcus faecium (GC 2243): 32 µg/mL (≈ 27.5 µM)
  MIC Enterococcus faecium (GC 4556): 64 µg/mL (≈ 55.1 µM)
  MIC Enterococcus faecium (GC 4557): 8 µg/mL (≈ 6.88 µM)
[2]
  MIC Coagulase Negative Staphylococcus (GC 4547): 16 µg/mL (≈ 13.8 µM)
  MIC Coagulase Negative Staphylococcus (GC 4548): 16 µg/mL (≈ 13.8 µM)
  MIC Coagulase Negative Staphylococcus (GC 4549): 4 µg/mL (≈ 3.44 µM)
  MIC Coagulase Negative Staphylococcus (GC 4551): 32 µg/mL (≈ 27.5 µM)
  MIC Coagulase Negative Staphylococcus (GC 6257): 8 µg/mL (≈ 6.88 µM)
  MIC Staphylococcus aureus SMITH (GC 4543): 16 µg/mL (≈ 13.8 µM)
  MIC Staphylococcus haemolyticus (GC 4546): 8 µg/mL (≈ 6.88 µM)
  MIC Staphylococcus aureus-SMITH (GC 4543): 16 µg/mL (≈ 13.8 µM)
[3]; [13]
  MIC Streptococcus agalactiae (GC 4564): 32 µg/mL (≈ 27.5 µM)
[3]; [14]
  MIC Streptococcus pneumoniae (ATCC 6301): 32 µg/mL (≈ 27.5 µM)
[3]; [15]
  MIC Streptococcus pneumoniae (GC 1894): 16 µg/mL (≈ 13.8 µM)
[3]; [16]
  MIC Streptococcus pneumoniae (GC 4565): 32 µg/mL (≈ 27.5 µM)
[3]; [17]
  MIC Streptococcus pyogenes (GC 4563): 8 µg/mL (≈ 6.88 µM)
[3]
  MIC Streptococcus agalactiae (GC 4564): 32 µg/mL (≈ 27.5 µM)
  MIC Streptococcus pneumoniae (ATCC 6301): 32 µg/mL (≈ 27.5 µM)
  MIC Streptococcus pneumoniae (GC 1894): 16 µg/mL (≈ 13.8 µM)
  MIC Streptococcus pneumoniae (GC 4565): 32 µg/mL (≈ 27.5 µM)
  MIC Streptococcus pyogenes (GC 4563): 8 µg/mL (≈ 6.88 µM)
[4]
  MIC Escherichia coli (ATCC 25922): 64 µg/mL (≈ 55.1 µM)
  MIC Escherichia coli (GC 4559): 64 µg/mL (≈ 55.1 µM)
  MIC Escherichia coli (GC 4560): 16 µg/mL (≈ 13.8 µM)

## COc1ccc(Oc2cccc(-c3nc4cc(CC5NC(=O)C(C(C)c6ccccc6)NC(=O)CNC(=O)C(CO)NC(=O)C(C(O)C6CNC(=N)N6C6OC(CO)C(O)C(O)C6O)NC(=O)C(C(O)C6CNC(=N)N6)NC5=O)ccc4o3)c2)cc1 (stereo not shown) [Example 35]
[1]; Enterococcus avium (GC 4558)
  MIC Enterococcus avium (GC 4558): 8 µg/mL (≈ 6.7 µM)
[1]; [5]
  MIC Enterococcus faecalis (ATCC 29212): 16 µg/mL (≈ 13.4 µM)
[1]; [6]
  MIC Enterococcus faecalis (GC 2242): 16 µg/mL (≈ 13.4 µM)
[1]; [7]
  MIC Enterococcus faecalis (GC 2691): 16 µg/mL (≈ 13.4 µM)
[1]; [8]
  MIC Enterococcus faecalis (GC 3059): 32 µg/mL (≈ 26.8 µM)
[1]; [9]
  MIC Enterococcus faecalis (GC 4552): 32 µg/mL (≈ 26.8 µM)
[1]; [10]
  MIC Enterococcus faecalis (GC 4553): 8 µg/mL (≈ 6.7 µM)
[1]; [11]
  MIC Enterococcus faecalis (GC 4554): 32 µg/mL (≈ 26.8 µM)
[1]; [12]
  MIC Enterococcus faecalis (GC 6189): 16 µg/mL (≈ 13.4 µM)
[1]; Enterococcus faecium (GC 2243)
  MIC Enterococcus faecium (GC 2243): 8 µg/mL (≈ 6.7 µM)
[1]; Enterococcus faecium (GC 4556)
  MIC Enterococcus faecium (GC 4556): 32 µg/mL (≈ 26.8 µM)
[1]; Enterococcus faecium (GC 4557)
  MIC Enterococcus faecium (GC 4557): 4 µg/mL (≈ 3.35 µM)
[1]
  MIC Enterococcus avium (GC 4558): 8 µg/mL (≈ 6.7 µM)
  MIC Enterococcus faecalis (ATCC 29212): 16 µg/mL (≈ 13.4 µM)
  MIC Enterococcus faecalis (GC 2242): 16 µg/mL (≈ 13.4 µM)
  MIC Enterococcus faecalis (GC 2691): 16 µg/mL (≈ 13.4 µM)
  MIC Enterococcus faecalis (GC 3059): 32 µg/mL (≈ 26.8 µM)
  MIC Enterococcus faecalis (GC 4552): 32 µg/mL (≈ 26.8 µM)
  MIC Enterococcus faecalis (GC 4553): 8 µg/mL (≈ 6.7 µM)
  MIC Enterococcus faecalis (GC 4554): 32 µg/mL (≈ 26.8 µM)
  MIC Enterococcus faecalis (GC 6189): 16 µg/mL (≈ 13.4 µM)
  MIC Enterococcus faecium (GC 2243): 8 µg/mL (≈ 6.7 µM)
  MIC Enterococcus faecium (GC 4556): 32 µg/mL (≈ 26.8 µM)
  MIC Enterococcus faecium (GC 4557): 4 µg/mL (≈ 3.35 µM)
[2]
  MIC Coagulase Negative Staphylococcus (GC 4547): 8 µg/mL (≈ 6.7 µM)
  MIC Coagulase Negative Staphylococcus (GC 4548): 8 µg/mL (≈ 6.7 µM)
  MIC Coagulase Negative Staphylococcus (GC 4549): 8 µg/mL (≈ 6.7 µM)
  MIC Coagulase Negative Staphylococcus (GC 4551): 8 µg/mL (≈ 6.7 µM)
  MIC Coagulase Negative Staphylococcus (GC 6257): 2 µg/mL (≈ 1.67 µM)
  MIC Staphylococcus aureus SMITH (GC 4543): 8 µg/mL (≈ 6.7 µM)
  MIC Staphylococcus haemolyticus (GC 4546): 8 µg/mL (≈ 6.7 µM)
  MIC Staphylococcus aureus-SMITH (GC 4543): 8 µg/mL (≈ 6.7 µM)
[3]; [13]
  MIC Streptococcus agalactiae (GC 4564): 8 µg/mL (≈ 6.7 µM)
[3]; [14]
  MIC Streptococcus pneumoniae (ATCC 6301): 8 µg/mL (≈ 6.7 µM)
[3]; [15]
  MIC Streptococcus pneumoniae (GC 1894): 8 µg/mL (≈ 6.7 µM)
[3]; [16]
  MIC Streptococcus pneumoniae (GC 4565): 16 µg/mL (≈ 13.4 µM)
[3]; [17]
  MIC Streptococcus pyogenes (GC 4563): 2 µg/mL (≈ 1.67 µM)
[3]
  MIC Streptococcus agalactiae (GC 4564): 8 µg/mL (≈ 6.7 µM)
  MIC Streptococcus pneumoniae (ATCC 6301): 8 µg/mL (≈ 6.7 µM)
  MIC Streptococcus pneumoniae (GC 1894): 8 µg/mL (≈ 6.7 µM)
  MIC Streptococcus pneumoniae (GC 4565): 16 µg/mL (≈ 13.4 µM)
  MIC Streptococcus pyogenes (GC 4563): 2 µg/mL (≈ 1.67 µM)
[4]
  MIC Escherichia coli (GC 4560): 16 µg/mL (≈ 13.4 µM)
